Data taken from PubChem BioAssay AID256 (DTP/NCI, 2004).
Toxic doses and inconclusive results are not listed. The calls were made as follows: active = survival T/C of 150% or more; inactive = T/C below 125% in these data.

System: CD2F1 mice, L1210 leukemia ip, survival T/C
Experiment: NCI In Vivo Anticancer Drug Screen. Data for tumor model L1210 Leukemia (intraperitoneal) in CD2F1 (CDF1) mice
Conditions: higher = longer survival
How it was run: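 Implant tumor; dose compound or vehicle; measure endpoint in both groups; report treated divided by control.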

[1] = endpoint: mean survival time, dose: 100.0 mg/kg/injection, schedule: Q01DX009 (ip), vehicle: saline with Tween-80
[2] = endpoint: mean survival time, dose: 200.0 mg/kg/injection, schedule: Q01DX009 (ip), vehicle: saline with Tween-80
[3] = endpoint: mean survival time, dose: 400.0 mg/kg/injection, schedule: Q01DX009 (ip), vehicle: saline with Tween-80
[4] = endpoint: mean survival time, dose: 100.0 mg/kg/injection, schedule: Q04DX003 (ip), vehicle: saline with Tween-80
[5] = endpoint: mean survival time, dose: 200.0 mg/kg/injection, schedule: Q04DX003 (ip), vehicle: saline with Tween-80
[6] = endpoint: mean survival time, dose: 400.0 mg/kg/injection, schedule: Q04DX003 (ip), vehicle: saline with Tween-80

Measured: T/C

Nc1ncnc2nc(SCc3cccc([N+](=O)[O-])c3)[nH]c12
inactive: endpoint: mean survival time, dose: 100.0 mg/kg/injection, schedule: Q01DX001 (ip), vehicle: saline with Tween-80 96 % of control | endpoint: mean survival time, dose: 200.0 mg/kg/injection, schedule: Q01DX001 (ip), vehicle: saline with Tween-80 90 % of control | endpoint: mean survival time, dose: 400.0 mg/kg/injection, schedule: Q01DX001 (ip), vehicle: saline with Tween-80 90 % of control

CCN(C(=O)NC)c1cc(C)ccc1OC
inactive: [1] 87 % of control | [2] 87 % of control | [3] 98 % of control

Cc1ccccc1C(C)(C#N)Nc1ccccc1 (centres undefined)
inactive: [4] 101 % of control | [5] 103 % of control | [6] 104 % of control

O=C(Nc1cccc2c(NC(=O)c3ccccc3)cccc12)c1ccccc1
inactive: [1] 94 % of control | [2] 95 % of control | [3] 91 % of control

CCCC(O)C(N)CC (centres undefined)
inactive: endpoint: mean survival time, dose: 100.0 mg/kg/injection, schedule: Q01DX001 (ip), vehicle: saline 98 % of control | endpoint: mean survival time, dose: 200.0 mg/kg/injection, schedule: Q01DX001 (ip), vehicle: saline 90 % of control

CC1(O)CSC(C)(O)CS1 (centres undefined)
inactive: endpoint: mean survival time, dose: 6.25 mg/kg/injection, schedule: Q04DX002 (ip), vehicle: saline with Tween-80 104 % of control | endpoint: mean survival time, dose: 12.5 mg/kg/injection, schedule: Q04DX002 (ip), vehicle: saline with Tween-80 100 % of control | endpoint: mean survival time, dose: 25.0 mg/kg/injection, schedule: Q04DX002 (ip), vehicle: saline with Tween-80 104 % of control

O=[N+]([O-])c1cccc(N=C(Nc2cccc([N+](=O)[O-])c2)c2ccccc2)c1
inactive: [4] 113 % of control | [5] 107 % of control | [6] 103 % of control

Cc1ccc[n+](CCCCCCCC[n+]2cccc(C)c2)c1
inactive: endpoint: mean survival time, dose: 0.5 mg/kg/injection, schedule: Q04DX003 (ip), vehicle: saline 100 % of control | endpoint: mean survival time, dose: 1.0 mg/kg/injection, schedule: Q04DX003 (ip), vehicle: saline 103 % of control | endpoint: mean survival time, dose: 2.0 mg/kg/injection, schedule: Q04DX003 (ip), vehicle: saline 106 % of control

N#CC(C#N)=CN1CCCC1
inactive: endpoint: mean survival time, dose: 5.0 mg/kg/injection, schedule: Q01DX001 (ip), vehicle: saline with Tween-80 100 % of control | endpoint: mean survival time, dose: 10.0 mg/kg/injection, schedule: Q01DX001 (ip), vehicle: saline with Tween-80 102 % of control | endpoint: mean survival time, dose: 20.0 mg/kg/injection, schedule: Q01DX001 (ip), vehicle: saline with Tween-80 93 % of control

COc1ccc([NH-])cc1.COc1ccc([NH-])cc1.[Br][Pt+2][Br]
inactive: endpoint: mean survival time, dose: 3.12 mg/kg/injection, schedule: Q04DX003 (ip), vehicle: distilled water + Tween-80 111 % of control | endpoint: mean survival time, dose: 6.25 mg/kg/injection, schedule: Q04DX003 (ip), vehicle: distilled water + Tween-80 108 % of control | endpoint: mean survival time, dose: 12.5 mg/kg/injection, schedule: Q04DX003 (ip), vehicle: distilled water + Tween-80 114 % of control | endpoint: mean survival time, dose: 25.0 mg/kg/injection, schedule: Q04DX003 (ip), vehicle: distilled water + Tween-80 111 % of control | endpoint: mean survival time, dose: 50.0 mg/kg/injection, schedule: Q04DX003 (ip), vehicle: distilled water + Tween-80 98 % of control

NC(=O)c1nc(Br)n(C2OC(CO)C(O)C2O)c1N (centres undefined)
inactive: endpoint: median survival time, dose: 44.0 mg/kg/injection, schedule: Q01DX005 (ip), vehicle: saline 104 % of control | endpoint: median survival time, dose: 88.0 mg/kg/injection, schedule: Q01DX005 (ip), vehicle: saline 101 % of control | endpoint: median survival time, dose: 175.9 mg/kg/injection, schedule: Q01DX005 (ip), vehicle: saline 102 % of control
